# Experimental data as given in patent US5935597A, “Drug delivery devices and methods for treatment of viral and microbial infections and wasting syndromes” (Cryopreservation Technologies CC, priority 1995, dated 1999).
# Tests used:
# [1] = Example 7: plasma/blood DMF level in HIV-1 patients treated with DMF dermal patches; assay type: in vivo; conditions: human, blood, topical or ocular, 14000 mg
# Procedure: Two skin patches were applied to different parts of the patient's body, for example to the forearm. […] The gel served to prevent leakage of liquid DMF from the patches. […] For a patient weighing about 60 kg, an amount of about 14 g over a period of 12 hours is required to produce a level of 100 ppm. Based on studies by Marz and Nohova the surface area required to absorb this amount in about 127,2 cm^2. […] Absorption capability varies from patient to patient depending on factors such as skin-type and skin thickness.
# (§1) Each patch was applied for a period of 12 hours, either once per week over a period of 12 weeks, or twice per week over a period of 6 weeks.
# Daily full clinical and psychological evaluations were also conducted.
# [2] = tested on: CD4 T-cell; test: Example 7: CD4 T-cell counts in blood of HIV-1 patients; assay type: in vivo, human; conditions: certain patients; increase from 350; transdermal DMF
# Procedure: as §1
# (§2) Blood tests in certain patients indicated an increase in CD4 T-cell counts from 350 to 1000, and a rapid reduction of PCR (Polymerase chain reaction) (viral load) of 120,000 to 500/ml within three weeks with as little as three treatments. […] The PCR test conducted was the Roche amplicor HIV monitor. A viral load of <500/ml plasma is considered to be undetectable.
# (§3) A daily virological serology workout to establish total body virus count and to monitor improvements in the immune status of the patient (CD4+ T-helper cells) and prognostic factors were also conducted. The serology workout was based on p24 antigen and quantitative PCR or, optionally, by other methods. A weekly determination of CD4 counts and […] was also conducted specifically to monitor improvements in the patient's immune status and prognosis. All clinical and laboratory data were fed into a centralized data system to facilitate rapid response to any detrimental change so as to curtail treatment to maximize clinical effect and minimize potential side effects.
# [3] = tested on: HIV-1; test: Example 7: HIV-1 viral load by quantitative PCR (Roche amplicor HIV monitor); assay type: in vivo, human; conditions: certain patients; reduction from 120,000; within three weeks, as little as three treatments
# Procedure: as §1, §2, §3
# [4] = Example 8 pilot study: peak plasma DMF level (GC/MS); assay type: in vivo; conditions: human, topical or ocular
# Procedure: (§4) A pilot study was conducted to evaluate the efficacy of transdermal DMF in the treatment of patients infected with HIV. Informed consent was obtained from each patient. Seropositive status was verified by Western blot using a commercial kit for detecting antibodies to p24 (Abbott Diagnostics) and the presence of HIV-1 was documented by quantitative PCR using a commercial kit (Roche Amplicor).
# Operational parameters were as follows: GC temperature program: 60° C. for 1 min. followed by a temperature gradient of 9.4° C./min. for 20 min. MS ionization method: electron impact; mass range: 40-80 mass units; 1 scan/sec; peak threshold: 3 counts/sec; background mass: 69 mass units. A stock solution of dimethylacetamide was used as an internal standard. All samples were extracted with an organic solvent containing the internal standard, allowed to precipitate for 30 min. in a refrigerator, and centrifuged at 3000×g for 5 min. before transfer to GC vials for injection.
# (§5) Dermal patches 9 cm in diameter were used within 12 hours of manufacture. […] The patches were visually inspected to verify the absence of leakage and were weighed on an analytical balance to verify less than 10% deviation from a total mass of 8.153 g. The patches were applied to the skin of the forearm and secured with Elastoplast™ bandages. Either one or two patches were used for the initial dose, as determined from the predicted skin transfer rate of 9.4 mg/cm^2 /hr and the patient's body weight.
# A staged dose of DMF was used, with two-hourly blood and urine sampling to determine peak plasma DMF levels. […] Initial evaluation included daily determination of: […]
# [5] = tested on: HIV-1; test: Example 8 pilot study: HIV-1 load by quantitative PCR (Roche Amplicor); assay type: in vivo, human
# Procedure: as §4, §5
# (§6) A staged dose of DMF was used, with two-hourly blood and urine sampling to determine peak plasma DMF levels. […] Initial evaluation included daily determination of:
# d) Quantitative estimates of HIV-1 load by PCR (Roche Amplicor) and analysis of antibody to p24 (Abbott);
# [6] = Example 8 pilot study: body weight; assay type: in vivo, human
# Procedure: as §4, §5, §6
# a) vital signs and body weight;
# [7] = tested on: HIV; test: Example 8 pilot study: clinical condition and Karnofsky performance scale in HIV infected patients; assay type: in vivo, human
# Procedure: as §4, §5, §6
# b) clinical checklist and Karnofsky score;
# (See Karnofsky et al., […], Cancer 1:634-656). […] Additional anti-microbial therapy for secondary infections was rarely needed. […] Clinical improvement correlated well with disease status as assessed by viral load and CD4+ T cell count.
# [8] = Example 8 pilot study: adverse effects and liver enzymes; assay type: in vivo, human
# Procedure: as §4, §5, §6
# b) serum urea, creatinine, glucose, sodium, potassium, ALT, AST, alkaline phosphatase and total bilirubin;
# [9] = Physicochemical properties of DMF; conditions: gel patches
# [10] = tested on: HIV; conditions: certain cultured cell lines; cited from earlier work
# [11] = tested on: transformed cells; conditions: in vitro, certain transformed cells; cited from earlier work
# [12] = tested on: malignant cells; conditions: cells treated in vitro, then inoculated into nude mice; cited from earlier work
# [13] = tested on: human cancer xenografts; conditions: intraperitoneal injection, nude mice; cited from earlier work
compound,measurement,setting,value
"CN(C)C=O [DMF, N,N'-dimethylformamide]",concentration at 12 h,[1],100 µg/mL
same,CD4 T-cell count,[2],1000
same,PCR viral load,[3],500 mL⁻¹
same,Cmax,"[4]; 3750 mg, Patient 6, two patches once weekly, 6 hours, average weekly dose 3.75 g",67 µg/mL
same,Cmax,"[4]; 4600 mg, Patient 7, 1 patch, 4 hours, average weekly dose 4.60 g",100 µg/mL
same,Cmax,"[4]; 6110 mg, Patient 3, two patches once a week, 8 hours, average weekly dose 6.11 g",75 µg/mL
same,Cmax,"[4]; 6240 mg, Patient 8, two patches once weekly, 8 hours, average weekly dose 6.24 g",130 µg/mL
same,Cmax,"[4]; 7120 mg, Patient 2, one patch per week, 8 hours, average weekly dose 7.12 g",125 µg/mL
same,Cmax,"[4]; 7330 mg, Patient 4, two patches once weekly, 8 hours, average weekly dose 7.33 g",90 µg/mL
same,Cmax,"[4]; 8250 mg, Patient 5, two patches weekly, 8 hours, average weekly dose 8.25 g",110 µg/mL
same,Cmax,"[4]; 8970 mg, Patient 1, two patches once a week, 8 hours, average weekly dose 8.97 g",121 µg/mL
same,PCR-measured viral load,"[5]; Patient 1, after 7 weeks, from 222,000","160,000 copies/ml"
same,PCR-measured viral load,"[5]; Patient 2, after 9 weeks, from 29,000","13,000 copies/ml"
same,PCR-measured viral load,"[5]; Patient 3, after 9 weeks, from 250,000","50,000 copies/ml"
same,PCR-measured viral load,"[5]; Patient 4, after 18 weeks, from 13,000","4,000 copies/ml"
same,PCR-measured viral load,"[5]; Patient 5, after 19 weeks, from 120,000","24,000 copies/ml"
same,PCR-measured viral load,"[5]; Patient 6, after 5 weeks, from 156,000","13,000 copies/ml"
same,PCR-measured viral load,"[5]; Patient 7, after 9 treatments, initial 1,156,000","9,000 copies/ml"
same,PCR-measured viral load,"[5]; Patient 8, after 8 weeks, from 1,200,000","250,000 copies/ml"
same,decline in PCR-measured viral load,"[5]; after 42 days, Gompertz curve fit, five out of eight patients",88.8%
same,body weight,"[6]; Patient 1, after 7 weeks, from 74.2",100 kg
same,body weight,"[6]; Patient 2, after 9 weeks, from 58.4",63.0 kg
same,body weight,"[6]; Patient 3, after 10 weeks, from 81.9",96.0 kg
same,body weight,"[6]; Patient 4, after 18 weeks, from 81.5",90.4 kg
same,body weight,"[6]; Patient 5, after 19 weeks, from 75.4",84.6 kg
same,body weight,"[6]; Patient 6, after 5 weeks, from 56.0",58.0 kg
same,body weight,"[6]; Patient 7, after 9 treatments, from 46.5",49.0 kg
same,body weight,"[6]; Patient 8, after 8 weeks, from 48.1",52.2 kg
same,weight gain,[6]; all patients,All the patients gained weight
same,need for additional anti-microbial therapy for secondary infections,[7]; 8 patients,rarely needed
same,neurological symptoms and Herpes viral infections,[7]; 8 patients,Improvement in neurological symptoms and Herpes viral infections was remarkable
same,"general condition, Karnofsky performance scale","[7]; 8 patients, before and after treatment (FIG. 4)",every patient showed improved general condition
same,clinical outcome,"[7]; Patient 1, after 7 weeks","appetite had improved, the respiratory difficulties had resolved, the patient appeared clinically well and started exercising again"
same,clinical outcome,"[7]; Patient 2, after 9 weeks","herpetic sores had resolved, the limb pains had disappeared and the patient appeared clinically well"
same,clinical outcome,"[7]; Patient 3, after 10 weeks",the patient was clinically well and no longer complained of pain in the limbs
same,clinical outcome,"[7]; Patient 4, after 18 weeks",The patient appeared clinically well and had no active medical complaints
same,clinical outcome,"[7]; Patient 5, after 19 weeks",The secondary infections had resolved and the patient appeared clinically well
same,clinical outcome,"[7]; Patient 6, after 5 weeks",The patient was clinically well
same,clinical outcome,"[7]; Patient 7, after 9 treatments",The patient felt well and had returned to full-time employment
same,clinical outcome,"[7]; Patient 8, after 8 weeks",the Herpes lesions had entirely resolved
same,clinical improvement,[7]; after 2-3 weeks of treatment,Virtually all patients showed clinical improvement
same,general fatigue and appetite,[7]; within the first 14 days of DMF treatment,marked improvement in general fatigue and in appetite
same,maximum elevation of liver enzymes,[8]; four patients with transient elevation,three
same,local skin irritation at the area of application,"[8]; most patients, after removal of the patches",mild local skin irritation
same,appearance of skin at the application site,"[8]; most patients, probably due to intense hydration under the patch",maculopapular appearance
same,nausea,"[8]; most patients, usually on day three after treatment",mild transient nausea
same,patients with transient elevation of liver enzymes,"[8]; of 8 patients, in most cases returned to pre-treatment levels before next dose",Four
same,blistering,"[8]; one case, resolved within 24 hours",slight blistering
same,nausea,[8]; one patient,moderate transient nausea
same,evaporation,[9],evaporates rapidly
same,in vitro replication of HIV,[10],inhibit in vitro replication of HIV
same,differentiation,[11],in vitro differentiating agent
same,tumorigenicity,[12],reduce their tumorigenicity
same,growth of human cancer xenografts,[13],slow the growth of certain human cancer xenografts
